# Like-named read-outs stand apart in the source and are kept apart here.
# Tests used:
# [1] = test system: HIV-1 (RF) in MT-2 cells; experiment: microbe, parasite or virus in culture; type: cell-based
# Protocol: DNA Plasmids and in vitro RNA transcripts:
# Plasmid pDAB 72 containing both gag and pol sequences of BH10 (bp 113-1816) cloned into PTZ 19R was prepared according to Erickson-Viitanen et al. AIDS Research and Human Retroviruses 1989, 5, 577. The plasmid was linearized with Bam HI prior to the generation of in vitro RNA transcripts using the Riboprobe Gemini system II kit (Promega) with T7 RNA polymerase. Synthesized RNA was purified by treatment with RNase free DNAse (Promega), phenol-chloroform extraction, and ethanol precipitation. RNA transcripts were dissolved in water, and stored at −70° C. The concentration of RNA was determined from the A260.
# Biotinylated capture probes were purified by HPLC after synthesis on an Applied Biosystems (Foster City, Calif.) DNA synthesizer by addition of biotin to the 5′ terminal end of the oligonucleotide, using the biotin-phosphoramidite reagent of Cocuzza, Tet. Lett. 1989, 30, 6287. The gag biotinylated capture probe (5-biotin-[…] 3′) was complementary to nucleotides 889-912 of HXB2 and the pol biotinylated capture probe (5′-biotin-[…] 3′) was complementary to nucleotides 2374-2395 of HXB2. Alkaline phosphatase conjugated oligonucleotides used as reporter probes were prepared by Syngene (San Diego, Calif.). The pol reporter probe (5′ […] 3′) was complementary to nucleotides 2403-2425 of HXB2. The gag reporter probe (5′ […] 3′) was complementary to nucleotides 950-973 of HXB2. All nucleotide positions are those of the GenBank Genetic Sequence Data Bank as accessed through the Genetics Computer Group Sequence Analysis Software Package (Devereau Nucleic Acids Research 1984, 12, 387). The reporter probes were prepared as 0.5μM stocks in 2× SSC (0.3M NaCl, 0.03M sodium citrate), 0.05M Tris pH 8.8, 1 mg/mL BSA. The biotinylated capture probes were prepared as 10 μM stocks in water.
# Streptavidin coated plates:
# Nunc-immunomodule microtiter plate strips were coated by addition of 200 μL of streptavidin (30 ug/mL, Scripps, La Jolla, Calif.) in freshly prepared 10 mM sodium carbonate (pH 9.6). Plates were incubated overnight at 4° C. Streptavidin solution was aspirated from the wells and a blocking buffer composed of phosphate buffered saline (PBS), 20 mg/mL bovine serum albumin (crystalline, nuclease and protease free, Calbiochem) and 100 mg/mL lactose (Sigma) was added to the plates for 3 hrs at room temperature. Blocking buffer was removed from the wells, which were allowed to dry overnight at room temperature and subsequently stored at 4° C. in zip lock bags with desiccant. For the majority of the compound evaluation experiments, streptavidin coated plates were obtained from Du Pont Biotechnology Systems (Boston, Mass.).
# MT-2, CEM, and H9 cells were maintained in RPMI 1640 supplemented with 5% fetal calf serum (FCS), 2 mM L-glutamine and 50 μg/mL gentamycin, all from Gibco. Laboratory strains of HIV-1 (RF, MN and IIIB) were propagated in H9 cells in the same medium. Virus stocks were prepared approximately 1 month after acute infection of H9 cells by clarification of the tissue culture medium and storage of aliquots at −70° C. […] Each aliquot of virus stock used for infection was thawed only once. In some cases, infected H9 cells were shifted to Dulbecco's modified Eagle's medium 3-10 days before collection of virus in order to generate virus stocks in medium with low biotin content. Clinical isolates of HIV that had been passaged once in MT-2 cells were used to infect fresh MT-2 cells in RPMI medium. Three days after infection, cells were pelleted, resuspended and culture continued in Dulbecco's modified Eagle's medium as above. Virus stocks of clinical isolates were prepaid 10-15 days after infection when cytopathic effects were apparent in the culture.
# [2] = target: single-chain tethered dimer of HIV protease (Human immunodeficiency virus 1, UniProt P04585); experiment: biochemical; type: biochemical; parameters: fused on or other part: A second copy of the same protease unit is joined to the first by a short peptide tether, giving one polypeptide
# Protocol: HIV Protease Inhibition Assay—HPLC Method
# Active protease was prepared as described therein by extraction with 67% acetic acid, dilution 33-fold with water, dialysis against water and then against a “refolding buffer” consisting of 20 mM MES, 1 mM dithiothreitol and 10% glycerol. Protease was stored as a stock preparation at 10 uM in refolding buffer.
# Substrate: Peptide of sequence: aminobenzoyl-Ala-Thr-His-Gln-Val-Tyr-Phe(NO2)-Val-Arg-Lys-Ala containing p-nitrophenylalanine, was prepared by solid phase synthesis as previously described Cheng et al., op.cit. Stock solutions of 2 mM substrate were prepared in DMSO.
# Inhibitory compounds were dissolved in sufficient DMSO to make 3 mM stock solutions. All further dilutions were prepared in “assay buffer”: 1M NaCl, 50 mM MES, pH 5.5, 1 mM EDTA, 1 mM DTT, […] glycerol.
# Enzyme reaction: In a 2 ml screw-cap centrifuge tube were added 50 ul protease (final concentration 0.25 nM) and 0.1 ml inhibitory compound (final concentration […]). After 15 min preincubation at room temperature, the reaction was started with the addition of 0.05 ml substrate (final concentration 5 uM). Incubation was carried out at 30 C. for 1 hr. The reaction was stopped with 1 ml 0.1M ammonium hydroxide.
# HPLC measurement of product formation: The product (aminobenzoyl-Ala-Thr-His-Gln-Val-Tyr) was separated from substrate on a Pharmacia MonoQ anion exchange column. The injection volume was 0.2 ml. The mobile phases were: A (20 mM trisHCl, pH 9.0, 0.02% sodium Azide, 10% acetonitrile), B (20 mM tris HCl, pH 9.0, 0.02% sodium azide, 0.5M ammonium formate, 10% acetonitrile). The mobile phases were pumped at 1 ml/min, with a gradient from 0 to 30% B in 5 min, 100% B for 4 min to wash the column, and a re-equilibration for 4 min. The retention time of the product was 3.6 min. Detection with a Shimadzu model RF535 fluorescence monitor was at 330 nm (excitation) and 430 (emission).
# [3] = Table 2d, HIV protease inhibition, HPLC method, read-out: HPLC K1
# [4] = Human immunodeficiency virus 1, MT2, 48 h, Table 2d, class symbols, read-out: IC90
# [5] = read-out: HPLC K1, Table 2d, class symbols
# [6] = Table 2d, class symbols, read-out: HPLC K1
structure (smiles),measurement,setting,value
CC(=O)NCCCCCN1C(=O)N(CCCCCNC(C)=O)C(Cc2ccccc2)C(O)C(O)C1Cc1ccccc1 (stereo not drawn) [15ET],IC90,"[1]; Table 2d, HIV RNA assay",++/+ (The ++/+ is used in the cases where an IC90 was determined to be >50 μg/mL)
same,Ki,[2]; [3],10 to 1000 nM
CCCCN1C(Cc2ccccc2)C(O)C(O)C(Cc2ccccc2)N(CCCC)S1(=O)=O (stereo not drawn) [23G],IC90,[1]; Table 2m,+++ (+++=<10 μg/mL)
same,Ki,"[2]; Table 2m, read-out: HPLC Ki",< 10 nM
CC(C)(CO)CCCCN1C(=O)N(CCCCC(C)(C)CO)C(Cc2ccccc2)C(O)C(O)C1Cc1ccccc1 (stereo not drawn) [15CP],IC90,"[1]; Table 2d, HIV RNA assay",+++ (+++=<10 μg/mL)
same,Ki,[2]; [3],10 to 1000 nM
O=S1(=O)N(Cc2ccccc2)C(Cc2ccccc2)C(O)C(O)C(Cc2ccccc2)N1Cc1ccccc1 (stereo not drawn) [23I],IC90,[1]; Table 2m,+++ (+++=<10 μg/mL)
same,Ki,"[2]; Table 2m, read-out: HPLC Ki",10 to 1000 nM
O=P1(Oc2ccccc2)N[C@H](Cc2ccccc2)[C@H](O)[C@@H](O)[C@@H](Cc2ccccc2)N1 (stereo partly drawn) [28A],IC90,[1]; Table 2r,++ (++=10 to 100 μg/mL)
same,Ki,"[2]; Table 2r, read-out: Ki HPLC",> 1000 nM
O=C1N(Cc2ccoc2)C(Cc2ccccc2)C(O)C(O)C(Cc2ccccc2)N1Cc1coc(CO)c1 (stereo not drawn) [Example 15FR],IC90,"[1]; HIV RNA assay, HIV-1 infected MT-2 cells, Table 2d",+++ (+++=<10 μg/mL)
same,Ki,"[2]; HIV protease inhibition, HPLC method, Table 2d, read-out: HPLC K1",< 10 nM
OCc1cccc(CN2C(=S)N(Cc3cccc(CO)c3)C(Cc3ccccc3)C(O)C(O)C2Cc2ccccc2)c1 (stereo not drawn) [Example 27D],IC90,[1]; Table 2q,+++ (+++=<10 μg/mL)
same,Ki,"[2]; Table 2q, read-out: HPLC Ki",< 10 nM
O=C1N(Cc2ccccc2)C(Cc2ccccc2)C(O)C(O)C(Cc2ccccc2)N1Cc1ccccc1 (stereo not drawn) [Example 13L],IC90,[1]; [4],< 10 µg/mL
same,Ki,[2]; [5],< 10 nM
CC(C)(C)OC(=O)c1ccc(CN2C(=O)N(Cc3ccc(C(=O)OC(C)(C)C)o3)C(Cc3ccccc3)C(O)C(O)C2Cc2ccccc2)o1 (stereo not drawn) [Example 13W],IC90,"[1]; Table 2d, class symbols",+++ (+++=<10 μg/mL)
same,Ki,[2]; [6],> 1000 nM
NC(=O)Sc1cccc(CN2C(=O)N(Cc3cccc(SC(N)=O)c3)C(Cc3ccccc3)C(O)C(O)C2Cc2ccccc2)c1 (stereo not drawn) [Example 12Q],IC90,"[1]; Table 2d, class symbols",+ (+=>100 μg/mL)
same,Ki,[2]; [6],< 10 nM
O=C1N(CC2CC2)C(Cc2ccccc2)C(O)C(O)C(Cc2ccccc2)N1CC1CC1 (stereo not drawn) [Example 13J],IC90,"[1]; Table 2d, class symbols",+++ (+++=<10 μg/mL)
same,Ki,[2]; [6],< 10 nM
CCCCN1[C@H](Cc2ccccc2)[C@H](O)[C@@H](O)[C@@H](Cc2ccccc2)N(CCCC)P1(=O)Oc1ccccc1 (stereo partly drawn) [Example 28D],IC90,[1]; Table 2r,+++ (+++=<10 μg/mL)
same,Ki,"[2]; Table 2r, read-out: Ki HPLC",10 to 1000 nM
COCCCCCN1C(=O)N(CCCCCO)C(Cc2ccccc2)C(O)C(O)C1Cc1ccccc1 (stereo not drawn) [Example 15VW],IC90,[1]; [4],< 10 µg/mL
same,Ki,[2]; [5],< 10 nM
C=CCN1C(=O)N(CC=C)[C@H](Cc2ccccc2)[C@@H](O)[C@H](O)[C@H]1Cc1ccccc1 [Example 13N],IC90,"[1]; Human immunodeficiency virus 1, MT2, 48 h",10 to 100 µg/mL
same,Ki,[2]; [5],> 1000 nM
Nc1cccc(CN2C(=O)N(Cc3ccc4ccccc4c3)C(Cc3ccccc3)C(O)C(O)C2Cc2ccccc2)c1 (stereo not drawn) [15WU],IC90,[1]; [4],< 10 µg/mL
same,Ki,[2]; [5],< 10 nM
O=C1N(Cc2cccc(O)c2)C(Cc2ccc(F)cc2)C(O)C(O)C(Cc2ccc(F)cc2)N1Cc1cccc(O)c1 (stereo not drawn) [Example 20G],Ki,"[2]; read-out: HPLC Ki, Table 2i",< 10 nM
C=CCCCC1C(O)C(O)C(CCCC=C)N(CC=C)C(=O)N1CC=C (stereo not drawn) [Example 16AR],Ki,"[2]; Table 2e, read-out: K4 HPLC",> 1000 nM
O=C1N(Cc2ccc(CO)cc2)[C@H](CCc2ccccc2)[C@@H](O)[C@@H](Cc2ccccc2)N1Cc1ccc(CO)cc1 [Example 8M],Ki,"[2]; read-out: Ki (HPLC), Table 1e, cells marked (HPLC)",< 10 nM

# Source: patent publication USRE37781E1, “Substituted cyclic carbonyls and derivatives thereof useful as retroviral protease inhibitors” (DuPont Pharmaceuticals Company, priority 1991, dated 2002)
